We go through 9 molecules from ChEMBL document CHEMBL2150895, “Zizimauritic acids A-C, three novel nortriterpenes from Ziziphus mauritiana” (Bioorg Med Chem Lett, 2012).

A word on the IC50: it is the point on the concentration scale where inhibition reaches its midpoint. Read a low IC50 as inhibition by little substance.

≈ marks a conversion by molar mass, not a printed value. Calls of active or inactive are those of the source. The rule behind the calls is not given here. Where only a bound is given, the exact number is not on record here.

For one test, the system named is Staphylococcus aureus. Description: Antibacterial activity against Staphylococcus aureus. Format: functional, organism-based.
A further test has as its system BGC-823. The test is described as follows: Cytotoxicity against human BGC823 cells. Format: functional, cell-based.
Another test concerns HeLa. Description: Cytotoxicity against human HeLa cells. It counts as functional, cell-based.
The subject of another test is A549. Description: Cytotoxicity against human A549 cells. Format: functional, cell-based.
Another test concerns Candida albicans. Description: Antifungal activity against Candida albicans. Format: functional, organism-based.

As to `C=C(C)[C@@H]1CC[C@]2(C(=O)O)CC[C@]3(C)[C@H](CC[C@@H]4[C@@]5(C)CC[C@H](O)C(C)(C)[C@@H]5CC[C@]43C)[C@@H]12`, the result in the test with Staphylococcus aureus, in the test with BGC-823, in the test on HeLa and with A549 was inactive.

As to `C=C(C)[C@@H]1CC[C@]2(C(=O)O)CC[C@]3(C)[C@H](CC[C@@H]4[C@@]5(C)[C@@H](C(=O)O)[C@H](O)C(C)(C)[C@@H]5CC[C@]43C)[C@@H]12`, the result in the test on Staphylococcus aureus, with BGC-823, in the test with HeLa and with A549 was inactive.

Turning to `CC(C)=C[C@@H]1[C@H]2CC[C@@H]3[C@@]4(C)C=CC(C)(C)[C@@H]4CC[C@@]3(C)[C@]2(C(=O)O)CC[C@@]12CC(O)OC2=O` (mixture of isomers) [ZIZIMAURITIC ACID C], the IC50 is 12.8 µg/mL with Staphylococcus aureus; 10.1 µg/mL in the test on BGC-823; 9.25 µg/mL in the test with HeLa; 11.9 µg/mL with A549; over 10 µg/mL with Candida albicans.

`CC1(C)S[C@@H]2[C@H](NC(=O)[C@H](N)c3ccccc3)C(=O)N2[C@H]1C(=O)O` [AMPICILLIN] gave an IC50 in the test on Staphylococcus aureus of 0.04 µg/mL (≈ 0.114 µM).

For `C=C(C)[C@@H]1CC[C@]2(C(=O)O)CC[C@]3(C(=O)O)[C@H](CC[C@@H]4[C@@]5(C)C=CC(C)(C)[C@@H]5CC[C@]43C)[C@@H]12` [CEANOTHENIC ACID], the IC50 with Staphylococcus aureus is over 20 µg/mL; in the test on BGC-823, over 10 µg/mL; with HeLa, 7.55 µg/mL (≈ 16.6 µM); in the test with Candida albicans it was over 10 µg/mL.

For `Clc1ccc(COC(Cn2ccnc2)c2ccc(Cl)cc2Cl)c(Cl)c1.O=[N+]([O-])O` (configuration not stated) [MICONAZOLE NITRATE], the midpoint of inhibition with Candida albicans, the IC50, lay at 0.16 µg/mL.

`CC(=O)O[C@H]1C(=O)[C@@]2(C)[C@H]([C@H](OC(=O)c3ccccc3)[C@]3(O)C[C@H](OC(=O)[C@H](O)[C@@H](NC(=O)c4ccccc4)c4ccccc4)C(C)=C1C3(C)C)[C@]1(OC(C)=O)CO[C@@H]1C[C@@H]2O` [PACLITAXEL]: the IC50 in the test with BGC-823 was determined as 0.01 µg/mL (≈ 0.0117 µM); in the test on HeLa, 0.38 µg/mL (≈ 0.445 µM); in the test on A549 it was 0.02 µg/mL (≈ 0.0234 µM).

As for `CO[C@H]1C[C@@]2(CC[C@]3(C(=O)O)[C@H](CC[C@@H]4[C@@]5(C)C=CC(C)(C)[C@@H]5CC[C@]43C)[C@H]2C=C(C)C)C(=O)O1` [ZIZIMAURITIC ACID A], the IC50 in the test with Staphylococcus aureus is 2.17 µg/mL (≈ 4.48 µM); in the test on BGC-823, 8.8 µg/mL (≈ 18.2 µM); in the test with HeLa, 6.06 µg/mL (≈ 12.5 µM); with A549, 9.37 µg/mL (≈ 19.3 µM); with Candida albicans it was over 10 µg/mL.

On to `CO[C@@H]1C[C@@]2(CC[C@]3(C(=O)O)[C@H](CC[C@@H]4[C@@]5(C)C=CC(C)(C)[C@@H]5CC[C@]43C)[C@H]2C=C(C)C)C(=O)O1` [ZIZIMAURITIC ACID B], for which the IC50 in the test on Staphylococcus aureus was over 20 µg/mL; in the test on BGC-823, 6.24 µg/mL (≈ 12.9 µM); in the test on HeLa, 5.36 µg/mL (≈ 11.1 µM); with A549, 5.05 µg/mL (≈ 10.4 µM); with Candida albicans, over 10 µg/mL.
